# Measurements from patent US20180325914A1, “INCREASING STORAGE OF VITAMIN A, VITAMIN D AND/OR LIPIDS” (Salk Institute for Biological Studies, priority 2014, published 2018).
# Test system: primary HSCs
# Settings: Day_6_JQ1
structure (smiles),measurement,value
"Cc1sc2c(c1C)C(c1ccc(Cl)cc1)=N[C@@H](CC(=O)OC(C)(C)C)c1nnc(C)n1-2 [JQ1, (S)-tert-butyl 2-(4-(4-chlorophenyl)-2,3,9-trimethyl-6H-thieno[3,2-f][1,2,4]triazolo[4,3-a][1,4]diazepin-6-yl)acetate]",1110067D22Rik value_2,7.6991
same,9930013L23Rik value_2,31.3095
same,A430110N23Rik value_2,1.529
same,Acot11 value_2,1.6538
same,Acpl2 value_2,7.205
same,Adam8 value_2,11.9385
same,Adamts12 value_2,17.1447
same,Adcy1 value_2,0.8092
same,Adcy5 value_2,0.9801
same,Adcy7 value_2,3.439
same,Aif1l value_2,1.208
same,Akap5 value_2,1.478
same,Aldh1a2 value_2,19.1605
same,Aldh1l1 value_2,1.536
same,Aldh1l2 value_2,7.698
same,Ankrd55 value_2,7.519
same,Apbb1ip value_2,18.5518
same,Apbb1 value_2,7.273
same,Arhgef6 value_2,2.025
same,Arhgef25 value_2,25.9937
same,Arl5a value_2,37.4802
same,Arsb value_2,16.7663
same,Avpr1a value_2,1.651
same,B3galnt1 value_2,2.653
same,B4galt2 value_2,15.1944
same,Bag2 value_2,14.4878
same,Bdnf value_2,4.6088
same,Bnip3 value_2,18.6877
same,Boc value_2,14.1708
same,Cacng7 value_2,2.276
same,Casp12 value_2,4
same,Ccbe1 value_2,26.2027
same,Ccnd2 value_2,143.49
same,Ccng1 value_2,163.356
same,Cd276 value_2,5.674
same,Cdh11 value_2,17.4722
same,Celf2 value_2,11.1573
same,Cercam value_2,9.775
same,Chpf value_2,51.0364
same,Chst12 value_2,44.2429
same,Chsy3 value_2,4.1726
same,Cnrip1 value_2,15.1406
same,Col1a1 value_2,830.694
same,Col4a5 value_2,36.069
same,Col12a1 value_2,37.8465
same,Col16a1 value_2,5.064
same,Copz2 value_2,47.0355
same,Cplx2 value_2,3.358
same,Crispld2 value_2,4.912
same,Crlf1 value_2,26.6612
same,Csrp2 value_2,137.115
same,Cul7 value_2,19.1665
same,Cxx1c value_2,13.5431
same,D4Bwg0951e value_2,30.19
same,Ddah1 value_2,10.4898
same,Dhrs1 value_2,30.0462
same,Dmpk value_2,26.4788
same,Dnpep value_2,41.0591
same,Dpysl3 value_2,14.2712
same,Dynlrb1 value_2,162.462
same,Dzip1l value_2,10.8578
same,Emp2 value_2,8.903
same,Enpp5 value_2,25.6268
same,Ext1 value_2,80.2965
same,Extl3 value_2,35.6167
same,Fah value_2,1.793
same,Fam19a5 value_2,1.344
same,Fam20a value_2,11.2001
same,Fam38b value_2,3.39
same,Fam110c value_2,13.4372
same,Fam132a value_2,4.331
same,Fap value_2,1.601
same,Fbxw9 value_2,14.3107
same,Fkbp7 value_2,40.2493
same,Fmod value_2,2.369
same,Fndc1 value_2,15.189
same,Fndc4 value_2,1.244
same,Folr1 value_2,1.905
same,Foxc2 value_2,1.453
same,Foxf2 value_2,1.6602
same,Frzb value_2,144.416
same,Fstl3 value_2,14.8692
same,Fzd6 value_2,2.328
same,Gdf6 value_2,25.9944
same,Gm2a value_2,22.5206
same,Gm14420 value_2,13.7546
same,Gmpr value_2,8.026
same,Gpc1 value_2,10.285
same,Gpc4 value_2,94.2819
same,Gpr39 value_2,22.0499
same,Gpr133 value_2,3.842
same,Gpr180 value_2,14.9448
same,Gria4 value_2,2.6
same,Gys1 value_2,11.4841
same,Hk2 value_2,9.851
same,Hoxb2 value_2,33.6747
same,Hrct1 value_2,3.228
same,Hs6st2 value_2,23.4423
same,Hspb1 value_2,104.396
same,Hspg2 value_2,105.328
same,Igf2 value_2,3.249
same,Igfbp2 value_2,2.5845
same,Iglon5 value_2,2.148
same,Ikbip value_2,68.3911
same,Itga5 value_2,44.6427
same,Jub value_2,23.4821
same,Kank1 value_2,15.8777
same,Kazald1 value_2,4.522
same,Kcne4 value_2,8.547
same,Kdm5b value_2,17.3352
same,Kif21b value_2,8.145
same,Kif26b value_2,3.17
same,Klhl26 value_2,25.6223
same,Lclat1 value_2,20.6695
same,Lepre1 value_2,61.4792
same,Leprel1 value_2,4.84
same,Leprel2 value_2,31.892
same,Lgals1 value_2,1464.5
same,Lims2 value_2,12.2591
same,Lox13 value_2,12.0376
same,Loxl1 value_2,78.0679
same,Loxl2 value_2,668.398
same,Lrrn2 value_2,1.8093
same,Mageh1 value_2,22.8542
same,Man2b2 value_2,26.9926
same,Mpzl1 value_2,88.2456
same,Mrvi1 value_2,2.602
same,Myh10 value_2,34.498
same,Myh11 value_2,6.328
same,Myl6 value_2,531.936
same,Mylk value_2,62.0714
same,Myo1d value_2,22.5024
same,Myof value_2,42.2087
same,Ncam1 value_2,8.073
same,Ndrg2 value_2,12.6911
same,Nexn value_2,6.343
same,Nid2 value_2,130.153
same,Nts value_2,3.21
same,Numbl value_2,22.4916
same,Obsl1 value_2,3.108
same,P4ha1 value_2,120.896
same,Palld value_2,17.5752
same,Pcsk5 value_2,4.88
same,Pde1a value_2,9.282
same,Pdlim4 value_2,4.7862
same,Pfkfb4 value_2,2.359
same,Phlda3 value_2,132.249
same,Phldb2 value_2,149.373
same,Phyhd1 value_2,3.552
same,Pla2g15 value_2,24.3031
same,Plac8 value_2,104.172
same,Plekhg3 value_2,18.1798
same,Plp2 value_2,16.6661
same,Plscr2 value_2,7.544
same,Plscr4 value_2,8.1813
same,Pmepa1 value_2,29.4329
same,Pmm1 value_2,54.8681
same,Pmp22 value_2,85.9788
same,Podn value_2,1.458
same,Polr3k value_2,22.8928
same,Pon3 value_2,19.5497
same,Popdc2 value_2,4.263
same,Ppapdc1b value_2,13.4067
same,Ppp1r14a value_2,20.201
same,Pppde2 value_2,20.4808
same,Prdx2 value_2,167.804
same,Prickle1 value_2,14.268
same,Prrc1 value_2,19.9334
same,Psrc1 value_2,6.874
same,Pter value_2,1.743
same,Ptpla value_2,12.4632
same,Ptplad2 value_2,8.106
same,Pvrl2 value_2,81.9103
same,Pygl value_2,3.275
same,Rab7l1 value_2,5.901
same,Rab15 value_2,1.498
same,Rab34 value_2,55.2701
same,Rab3d value_2,8.99
same,Rftn2 value_2,1.387
same,Rhobtb3 value_2,13.6471
same,Rnft1 value_2,17.8003
same,Ror1 value_2,6.1328
same,Rprd1a value_2,7.118
same,Runx2 value_2,3.741
same,Ryk value_2,55.3732
same,S100a1 value_2,70.3658
same,Sardh value_2,3.193
same,Sat2 value_2,5.26
same,Sce1 value_2,3.6703
same,Selm value_2,80.5867
same,Sepx1 value_2,93.1036
same,Serpine2 value_2,7.825
same,Serpinh1 value_2,1190.39
same,Setd7 value_2,32.7601
same,Sfrp1 value_2,33.2277
same,Sgce value_2,7.751
same,Sh3gl3 value_2,1.09
same,Sh3kbp1 value_2,10.1373
same,Shisa3 value_2,4.345
same,Skp2 value_2,4.997
same,Slc2a10 value_2,2.062
same,Slc35a2 value_2,23.1121
same,Slc44a2 value_2,59.6308
same,Slit3 value_2,39.3977
same,Snai1 value_2,35.4904
same,Snta1 value_2,25.2902
same,Snx30 value_2,13.1255
same,Sparcl1 value_2,5.629
same,Speg value_2,7.409
same,Spp1 value_2,226.746
same,Srgap3 value_2,1.389
same,Srpx value_2,2.6404
